Tests used:
[1] = biological target: T1, noradrenaline reuptake sites (Rattus norvegicus, UniProt Q63380); assay: Affinity for noradrenaline reuptake sites in the rat, competition with [3H]-nisoxetine on frontal cortex membranes; assay type: binding; conditions: 2 nM [3H]-nisoxetine, 4 hours at 4° C, pH 7.4
T1 construct: The membranes are prepared from the frontal cortex of the rat; from tissue; host or cells: rat frontal cortex membranes
Protocol: Determination of the Affinity For Noradrenaline Reuptake Sites in the Rat
The affinity was determined by competition experiments with [^3 H]-nisoxetine. The membranes are prepared from the frontal cortex of the rat and are incubated in triplicate with 2 nM [^3 H]-nisoxetine and the product to be tested in a final volume of 0.5 ml, for 4 hours at 4° C. The incubation buffer contains 50 mM TRIS-HCl (pH 7.4), 120 mM NaCl and 5 mM KCl. The non-specific binding is determined using 10 μM desipramine.
(§1) At the end of incubation, the incubation medium is filtered through WHATMAN GF/B filters impregnated with 0.1% of polyethyleneimine, and washed three times with 5 ml of cooled buffer. The radioactivity retained on the filters is determined by liquid scintillation counting. The binding isotherms are analysed by non-linear regression.

α2-adrenergic receptors = biological target: T2, α2-adrenergic receptors (Rattus norvegicus, UniProt P22909); assay: Affinity for α2-adrenergic receptors in the rat, competition with [3H]-RX 821,002 on cerebral cortex membranes; assay type: binding; conditions: 0.4 nM [3H]-RX 821,002, 60 minutes at 22° C, pH 7.5
T2 construct: The membranes are prepared from the cerebral cortex of the rat; from tissue; host or cells: rat cerebral cortex membranes
T2 sequence (P22909 1-465): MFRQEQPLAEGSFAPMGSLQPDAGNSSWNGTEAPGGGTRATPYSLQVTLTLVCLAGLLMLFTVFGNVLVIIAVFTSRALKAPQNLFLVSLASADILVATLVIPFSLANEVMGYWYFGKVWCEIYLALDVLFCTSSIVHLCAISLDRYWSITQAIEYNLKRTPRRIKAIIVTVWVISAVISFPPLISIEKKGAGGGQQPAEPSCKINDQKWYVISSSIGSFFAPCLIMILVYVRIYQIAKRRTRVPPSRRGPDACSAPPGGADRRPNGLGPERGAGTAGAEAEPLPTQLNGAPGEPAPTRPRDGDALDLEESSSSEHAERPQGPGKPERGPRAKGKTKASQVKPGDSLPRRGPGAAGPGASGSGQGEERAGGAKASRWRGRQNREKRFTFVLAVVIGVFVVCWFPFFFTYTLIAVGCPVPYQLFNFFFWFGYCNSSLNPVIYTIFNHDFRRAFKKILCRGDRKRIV
Protocol: Determination of the Affinity For α2 -Adrenergic Receptors in the Rat
The affinity was determined by competition experiments with [^3 H]-RX 821,002. The membranes are prepared from the cerebral cortex of the rat and are incubated in triplicate with 0.4 nM [^3 H]-RX 821,002 and the product to be tested in a final volume of 1.0 ml, for 60 minutes at 22° C. The incubation buffer contains […] TRIS-HCl (pH 7.5), 1 mM EDTA and 100 μM GppNHp. The non-specific binding is determined using 10 μM phentolamine.
as §1

serotonin reuptake sites = biological target: T3, serotonin reuptake sites (Rattus norvegicus, UniProt P31652); assay: Affinity for serotonin reuptake sites in the rat, competition with [3H]-paroxetine on frontal cortex membranes; assay type: binding; conditions: 0.25 nM [3H]-paroxetine, 2 hours at 25° C, pH 7.4
T3 construct: The membranes are prepared from the frontal cortex of the rat; from tissue; host or cells: rat frontal cortex membranes
T3 sequence (P31652 whole entry): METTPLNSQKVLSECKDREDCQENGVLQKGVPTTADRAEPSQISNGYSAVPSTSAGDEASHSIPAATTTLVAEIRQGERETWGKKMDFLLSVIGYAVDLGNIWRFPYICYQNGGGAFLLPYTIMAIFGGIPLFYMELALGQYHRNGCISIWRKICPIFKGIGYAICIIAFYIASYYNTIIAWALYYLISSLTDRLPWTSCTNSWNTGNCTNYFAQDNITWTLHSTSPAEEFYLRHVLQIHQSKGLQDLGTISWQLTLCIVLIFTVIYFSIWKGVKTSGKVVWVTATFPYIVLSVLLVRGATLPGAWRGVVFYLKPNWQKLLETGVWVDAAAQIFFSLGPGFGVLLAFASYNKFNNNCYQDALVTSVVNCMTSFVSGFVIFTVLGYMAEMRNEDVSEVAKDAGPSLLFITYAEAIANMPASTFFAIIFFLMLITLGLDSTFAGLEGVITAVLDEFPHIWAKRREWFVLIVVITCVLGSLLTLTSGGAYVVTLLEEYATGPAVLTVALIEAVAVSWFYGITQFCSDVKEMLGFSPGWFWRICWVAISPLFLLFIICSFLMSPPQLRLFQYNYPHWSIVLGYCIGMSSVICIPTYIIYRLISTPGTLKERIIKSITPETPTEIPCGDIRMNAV
Protocol: Determination of the Affinity For Serotonin Reuptake Sites in the Rat
The affinity was determined by competition experiments with [^3 H]-paroxetine. The membranes are prepared from the frontal cortex of the rat and are incubated in triplicate with 0.25 nM [^3 H]-paroxetine and the cold ligand in a final volume of 0.4 ml, for 2 hours at 25° C. The incubation buffer contains 50 mM TRIS-HCl (pH 7.4), 120 mM NaCl and 5 mM KCl. The non-specific binding is determined using 10 μM citalopram.
as §1

monoamine reuptake = conditions: described in U.S. Pat. No. 5,017,584; cited from earlier work
α2-adrenergic = conditions: described in U.S. Pat. No. 5,017,584; cited from earlier work

T1 sequence (Q63380 1-617): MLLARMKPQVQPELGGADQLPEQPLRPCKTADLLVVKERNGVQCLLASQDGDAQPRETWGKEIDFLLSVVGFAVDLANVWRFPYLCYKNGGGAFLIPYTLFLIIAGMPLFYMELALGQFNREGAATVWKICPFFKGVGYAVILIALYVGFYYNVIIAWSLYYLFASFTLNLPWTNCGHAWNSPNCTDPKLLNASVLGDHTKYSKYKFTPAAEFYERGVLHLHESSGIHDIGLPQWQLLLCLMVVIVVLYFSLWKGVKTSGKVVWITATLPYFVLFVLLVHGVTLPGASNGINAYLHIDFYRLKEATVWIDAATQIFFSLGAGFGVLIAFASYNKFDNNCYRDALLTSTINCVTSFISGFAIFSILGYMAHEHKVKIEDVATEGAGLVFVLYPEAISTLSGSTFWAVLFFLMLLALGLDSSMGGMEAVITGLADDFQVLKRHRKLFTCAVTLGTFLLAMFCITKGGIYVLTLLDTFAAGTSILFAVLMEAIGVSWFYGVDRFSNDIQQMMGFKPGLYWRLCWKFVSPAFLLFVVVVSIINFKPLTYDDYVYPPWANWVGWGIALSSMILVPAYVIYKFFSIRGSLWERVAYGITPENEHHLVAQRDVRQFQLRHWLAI

Compound	Ki [1] [nM]	Ki (α2-adrenergic receptors) [nM]	Ki (serotonin reuptake sites) [nM]	monoamine reuptake-blocking activity (in words) (monoamine reuptake)	α2-adrenergic antagonist activity (in words) (α2-adrenergic)
C1=NC[C@@]2(CC[C@@H]3Cc4ccccc4C[C@H]3C2)N1 (relative stereo) [Example 1, Spiro[(1,3-diazacyclopent-1-ene)-5: 2'(S)-(trans-1',2',3',4',4'a(R),9',9'a(S),10'-octahydroanthracene)]fumarate and spiro [(1,3-diazacyclopent-1-ene)-5: 2'(R)-(trans-1',2',3',4',4'a(S),9',9'a(R),10'-octahydroanthracene)]fumarate]	200	10	15.8		
C1=C(CC2=NCCN2)CCc2ccccc21 [napamezole]				monoamine reuptake-blocking activity	α2-adrenergic antagonist activity
